This is an account of results in patent US20040077754A1, “Dental materials based on acrylic-ester phosphonic acids” (priority 2002, published 2004).

The conditions of this data set: 20% solution in D2O/EtOH-d6 (1:1), stabilized with 200 ppm 2,6-di-tbutyl-4-methylphenol, stored at 37° C., standing time 2 months. The method, then:
In connection with the present invention, compounds which are stable in water or in mixtures of water and water-miscible solvents in a concentration of approx. 20 wt.-% and a pH value of approx. 2.0 at 37° C. for at least 6 weeks, i.e. hydrolyze to less than 1%, are described as hydrolysis-stable.
A 20% solution of MAPA, stabilized with 200 ppm 2,6-di-tbutyl-4-methylphenol, was prepared in D2O/EtOH-d6 (1:1), stored at 37° C. and ^1H-NMR-spectroscopically examined. After a standing time of 2 months, no changes in the ^1H-NMR-spectrum were able to be detected.

Turning to `C=C(COCCP(=O)(O)O)C(=O)Oc1c(C)cc(C)cc1C` [MAPA], the “Hydrolysis stability: changes in the 1H-NMR spectrum” value was “no changes”.
